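Cells were grown in 96-well plates and exposed to each compound for 48 hours at five concentrations; endpoints were interpolated linearly between bracketing concentrations, or set to the highest concentration if not reached. GI50 marks 50% less growth.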 Active and inactive are the calls of the source. Rule as the data show it: active = GI50 up to about 1.1 µM and inactive = higher.
Columns and labels:
Assay in all cases: NCI tumour cell line growth inhibition, 48 h
[1] = test system: 786-0
[2] = test system: A498
[3] = test system: A549
[4] = test system: ACHN
[5] = test system: BT-549
[6] = test system: CAKI-1
[7] = test system: CCRF-CEM
[8] = test system: COLO 205
[9] = test system: DU-145
[10] = test system: EKVX
[11] = test system: HCC 2998
[12] = test system: HCT-116
[13] = test system: HCT-15
[14] = test system: HL-60
[15] = test system: HOP-62
[16] = test system: HT-29
[17] = test system: Hs-578T
[18] = test system: IGROV-1
[19] = test system: K562
[20] = test system: KM12
[21] = test system: LOX IMVI
[22] = test system: M14
[23] = test system: MCF7
[24] = test system: MDA-MB-231
[25] = test system: MDA-MB-435
[26] = test system: MOLT-4
[27] = test system: Malme-3M
[28] = test system: NCI-H226
[29] = test system: NCI-H23
[30] = test system: NCI-H460
[31] = test system: NCI-H522
[32] = test system: NCI/ADR-RES
[33] = test system: OVCAR-3
[34] = test system: OVCAR-4
[35] = test system: OVCAR-5
[36] = test system: OVCAR-8
[37] = test system: PC-3
[38] = test system: RPMI-8226
[39] = test system: RXF 393
[40] = test system: SF-268
[41] = test system: SF-295
[42] = test system: SF-539
[43] = test system: SK-MEL-28
[44] = test system: SK-MEL-2
[45] = test system: SK-MEL-5
[46] = test system: SK-OV-3
[47] = test system: SN12C
[48] = test system: SNB-19
[49] = test system: SNB-75
[50] = test system: SW-620
[51] = test system: T47D
[52] = test system: TK-10
[53] = test system: U-251
[54] = test system: UACC-257
[55] = test system: UACC-62
[56] = test system: UO-31
[57] = test system: HOP-92
[58] = test system: MDA-N
[59] = test system: SR

Measured: GI50

Cc1cc(S(=O)(=O)Nc2n[nH]c(Nc3ccccc3)n2)c(S)cc1Cl
inactive: [1] > 10 µM | [2] > 10 µM | [3] > 10 µM | [4] > 10 µM | [5] > 10 µM | [6] > 10 µM | [7] > 10 µM | [8] > 10 µM | [9] > 10 µM | [10] > 10 µM | [11] > 10 µM | [12] > 10 µM | [14] > 10 µM | [15] > 10 µM | [16] > 10 µM | [17] > 10 µM | [18] > 10 µM | [19] > 10 µM | [20] > 10 µM | [21] > 10 µM | [22] > 10 µM | [23] > 10 µM | [24] > 10 µM | [25] > 10 µM | [26] > 10 µM | [27] > 10 µM | [28] > 10 µM | [29] > 10 µM | [30] > 10 µM | [31] > 10 µM | [32] > 10 µM | [33] > 10 µM | [34] > 10 µM | [35] > 10 µM | [36] > 10 µM | [37] > 10 µM | [38] > 10 µM | [39] > 10 µM | [40] > 10 µM | [41] > 10 µM | [42] > 10 µM | [43] > 10 µM | [44] > 10 µM | [45] > 10 µM | [46] > 10 µM | [47] > 10 µM | [48] > 10 µM | [49] > 10 µM | [50] > 10 µM | [51] > 10 µM | [52] > 10 µM | [53] > 10 µM | [54] > 10 µM | [55] > 10 µM | [56] > 10 µM
> 10 µM: [13]

CC(C)(CC(=O)Nc1ccccc1)C(=O)O
inactive: [1] > 100 µM | [2] > 100 µM | [3] > 100 µM | [4] > 100 µM | [5] > 100 µM | [6] > 100 µM | [7] > 100 µM | [8] > 100 µM | [9] > 100 µM | [10] > 100 µM | [12] > 100 µM | [14] > 100 µM | [15] > 100 µM | [57] > 100 µM | [16] > 100 µM | [18] > 100 µM | [19] > 100 µM | [20] > 100 µM | [21] > 100 µM | [22] > 100 µM | [23] > 100 µM | [24] > 100 µM | [25] > 100 µM | [58] > 100 µM | [26] > 100 µM | [28] > 100 µM | [29] > 100 µM | [30] > 100 µM | [32] > 100 µM | [33] > 100 µM | [34] > 100 µM | [35] > 100 µM | [36] > 100 µM | [37] > 100 µM | [38] > 100 µM | [41] > 100 µM | [42] > 100 µM | [43] > 100 µM | [44] > 100 µM | [45] > 100 µM | [46] > 100 µM | [47] > 100 µM | [48] > 100 µM | [59] > 100 µM | [50] > 100 µM | [51] > 100 µM | [52] > 100 µM | [53] > 100 µM | [54] > 100 µM | [55] > 100 µM | [56] > 100 µM
> 100 µM: [13]

From ChEMBL document CHEMBL1201862, “PubChem BioAssay data set” (2004)
